Positions count from the first letter of the chain named.
Tests used:
[1] = target: T1, acyltransferase activity of AGPAT4 (Homo sapiens, UniProt Q9NRZ5); assay: LPA to PA conversion assay; type: biochemical
T1 construct: The open reading frame (ORF) encoding the mRNA of AGPAT4 was cloned into the pDONR-221 donor vector; expressed in transfected cells; host or cells: Huh7 (lentiviral pEZ-Lv199-AGPAT4); also sorafenib-resistant HepG2 (endogenous AGPAT4)
T1 sequence (Q9NRZ5 1-378): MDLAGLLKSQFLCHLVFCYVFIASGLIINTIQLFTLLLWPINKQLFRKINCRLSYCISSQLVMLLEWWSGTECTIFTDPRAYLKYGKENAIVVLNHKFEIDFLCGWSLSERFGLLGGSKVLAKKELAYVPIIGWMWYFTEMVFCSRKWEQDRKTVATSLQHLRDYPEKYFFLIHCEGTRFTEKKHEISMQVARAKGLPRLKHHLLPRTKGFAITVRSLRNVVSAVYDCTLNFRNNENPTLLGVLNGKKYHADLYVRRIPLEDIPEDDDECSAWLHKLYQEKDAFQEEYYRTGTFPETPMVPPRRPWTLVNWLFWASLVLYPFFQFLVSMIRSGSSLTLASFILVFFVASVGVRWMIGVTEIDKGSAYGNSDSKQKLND
Method: (§1) Enzyme activity was measured by quantifying the conversion of [3H]-LPA to [3H]-PA following the protocol outlined in a previous study (43). Briefly, the enzymatic reaction was prepared by combining 10 μmol/L 18:1 Lyso PA (Avanti Polar Lipids), 50 μmol/L oleoyl CoA (Sigma-Aldrich), 1 μL 1-oleoyl-[oleoyl-9,10^−3H]-LPA (specific activity 30-60 Ci/mmol; PerkinElmer), and 1 mg/mL fatty acid-free BSA in 200 μL 100 mM Tris-HCl buffer at pH 7.4. The reaction was initiated by adding 30 μg of total protein (cell lysate) and incubating the mixture at 37° C. for 10 min. To stop the reaction, 0.5 mL of 1-butanol containing 1 M HCl was added to extract phospholipids to stop the reaction. The butanol extract was then dried under vacuum, and the LPA and PA were separated using a solvent system consisting of chloroform, methanol, acetic acid, and water (25:10:3:1). Radioactive spots were identified by comparing their migration with unlabelled LPA and PA standards and visualized using iodine vapours. The spots corresponding to [3H]-LPA and [3H]-PA were scraped and their radioactivity was measured using a Tri-Carb Liquid Scintillation Counter 4810 (PerkinElmer Life Sciences).

[2] = target: T2, acyltransferase activity of AGPAT4 (Homo sapiens, UniProt Q9NRZ5, C228A); assay: LPA to PA conversion assay; type: biochemical; conditions: Huh7 cells, AGPAT4 C228A mutant
T2 construct: The open reading frame (ORF) encoding the mRNA of AGPAT4 was cloned into the pDONR-221 donor vector; expressed in transfected cells; host or cells: Huh7 (lentiviral pEZ-Lv199-AGPAT4)
T2 sequence (Q9NRZ5 1-378 C228A): T1 sequence (Q9NRZ5 1-378) with C228A
Method: as §1

Animal toxicity studies = type: in vivo, C57BL/6 mice; conditions: 1 mg/kg or 10 mg/kg intraperitoneally
Method: C57BL/6 mice were administered CL26 at a low dose (1 mg/kg) or high dose (10 mg/kg) intraperitoneally to evaluate potential tissue damage associated with CL26 exposure. Major organs, including the liver, spleen, pancreas, kidney, heart, and lungs, were weighed prior to fixation in 10% formalin for subsequent paraffin embedding and H& E staining. Additionally, the serum concentrations of alanine aminotransferase (ALT) and aspartate aminotransferase (AST) were measured. The above analysis was performed at the Veterinary Diagnostic Laboratory of the City University of Hong Kong.

O=C(CCl)NCc1ccc(-c2nc3ccccc3s2)o1 [CL26, N-[[5-(2-benzothiazolyl)-2-furanyl]methyl]-2-chloroacetamide]
inhibition of acyltransferase activity (LPA to PA conversion) ([1]; Huh7 cells overexpressing AGPAT4 and sorafenib-resistant HepG2 cells): inhibition of acyltransferase activity of AGPAT4 in vitro was verified | inhibition of acyltransferase activity (PA conversion assay) in tumors ([1]; sorafenib-resistant HCC PDX model #2): inhibitory effect of CL26 on acyltransferase activity in sorafenib-resistant PDX was confirmed | LPA to PA conversion vs DMSO control [2]: did not show difference in LPA to PA conversion | blood chemistry (AST, ALT), major organ weight and histology vs control mice (Animal toxicity studies): no significant differences | toxicity associated with treatment (Animal toxicity studies): minimal toxicity

Source: patent US20250360111A1, “COMPOSITIONS OF AGPAT4 INHIBITORS AND METHODS OF USING THEREOF TO TREAT CANCER” (The University of Hong Kong, priority 2024, published 2025)
